Assay type in all cases: cell-based
For one assay, the target named is T1, BRAF G469A (Homo sapiens, UniProt P15056, G469A).
T1 construct: Horizon Discovery (HCT-116 BRAF−/− cells); host or cells: HCT-116 BRAF−/− cells, clone 34, lentiviral transduction
Put plainly: BRAF HiBiT degradation assay, C-terminal HiBiT-tagged BRAF G469A overexpressed in HCT-116 BRAF−/− cells (clone 34), Nano-Glo HiBiT Lytic assay. The procedure, abridged: (§1)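 HCT-116 BRAF−/− cells stably expressing the tagged mutant were seeded at 3,000 cells/well and grown 24 h at 37 °C before an 11-point half-log series from 1 μM to 0.01 nM, run in duplicate at 0.2% DMSO. Lytic HiBiT luminescence gave % protein remaining versus DMSO controls; DC50 was the fitted concentration at 50%.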

Another assay addresses T2, BRAF D594G (Homo sapiens, UniProt P15056, D594G).
T2 construct: Horizon Discovery (HCT-116 BRAF−/− cells); host or cells: HCT-116 BRAF−/− cells, clone 63, lentiviral transduction
Put plainly: BRAF HiBiT degradation assay, C-terminal HiBiT-tagged BRAF D594G overexpressed in HCT-116 BRAF−/− cells (clone 63), Nano-Glo HiBiT Lytic assay. The essentials:
as §1
(In general: The HiBiT peptide binds its large partner to form an active luciferase.)

The target of a further assay is T3, BRAF V600E (Homo sapiens, UniProt P15056, V600E).
T3 construct: endogenous C-terminal HiBiT fusion tag on BRAF V600E allele; endogenous in cells; host or cells: A375 clone 1F10 (CRISPR-Cas9 knock-in of the HiBiT tag; parental A375 from ATCC)
Nature of the assay: BRAF HiBiT degradation assay, C-terminal HiBiT-tagged BRAF V600E A375 cells (clone 1F10), Nano-Glo HiBiT Lytic assay. The note with it: for Dmax: A-375. The procedure, abridged: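 A375 cells with CRISPR knock-in C-terminal HiBiT on endogenous BRAF V600E (clone 1F10) were seeded and cultured 24 h at 37 °C, then dosed with an 11-point half-log series (1 μM to 0.01 nM, duplicate, 0.2% DMSO). Lytic HiBiT luminescence gave % protein remaining; DC50 was the fitted concentration at 50%.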

The next assay deals with T4, BRAF G466V (Homo sapiens, UniProt P15056, G466V).
T4 construct: Horizon Discovery (HCT-116 BRAF−/− cells); host or cells: HCT-116 BRAF−/− cells, clone 8, lentiviral transduction
Nature of the assay: BRAF HiBiT degradation assay, C-terminal HiBiT-tagged BRAF G466V overexpressed in HCT-116 BRAF−/− cells (clone 8), Nano-Glo HiBiT Lytic assay. The essentials: as §1

Where [1] appears, read: BRAF G469A (Class 2), HCT-116 BRAF−/− cells, DC50 at 50% degradation.
Setting [2] is: BRAF G469A (Class 2), HCT-116 BRAF−/− cells, observed Dmax relative to DMSO control.
Where [3] appears, read: BRAF D594G (Class 3), HCT-116 BRAF−/− cells, DC50 at 50% degradation.
[4] abbreviates: BRAF D594G (Class 3), HCT-116 BRAF−/− cells, observed Dmax relative to DMSO control.
Setting [5] is: A375 (BRAF V600E, Class 1), DC50 at 50% degradation.
Setting [6] is: A375 (BRAF V600E, Class 1), observed Dmax, % protein degraded relative to DMSO control.
The mark [7] stands for this setting: BRAF G466V (Class 3), HCT-116 BRAF−/− cells, DC50 at 50% degradation.
Where [8] appears, read: BRAF G466V (Class 3), HCT-116 BRAF−/− cells, observed Dmax relative to DMSO control.
Where [9] appears, read: Class 2, BRAF G469A, DC50 at 50%: fitted conc. at Y=50.
Setting [10] is: HCT-116, Class 2, BRAF G469A, percentage protein degraded at maximal compound effect relative to DMSO.
Where [11] appears, read: BRAF D594G, DC50 at 50%: fitted conc. at Y=50.
The mark [12] stands for this setting: HCT-116, BRAF D594G, percentage protein degraded at maximal compound effect relative to DMSO.
Setting [13] is: A375 (BRAF V600E), DC50 at 50%: fitted conc. at Y=50.
Where [14] appears, read: A375 (BRAF V600E), percentage protein degraded at maximal compound effect relative to DMSO.
Where [15] appears, read: BRAF G466V, DC50 at 50%: fitted conc. at Y=50.
[16] abbreviates: HCT-116, BRAF G466V, percentage protein degraded at maximal compound effect relative to DMSO.

As a reminder, the DC50 is the concentration giving 50% degradation. Usually Dmax stands for the greatest extent of degradation seen. A low value points to shallow degradation.

T2 sequence (P15056 whole entry D594G): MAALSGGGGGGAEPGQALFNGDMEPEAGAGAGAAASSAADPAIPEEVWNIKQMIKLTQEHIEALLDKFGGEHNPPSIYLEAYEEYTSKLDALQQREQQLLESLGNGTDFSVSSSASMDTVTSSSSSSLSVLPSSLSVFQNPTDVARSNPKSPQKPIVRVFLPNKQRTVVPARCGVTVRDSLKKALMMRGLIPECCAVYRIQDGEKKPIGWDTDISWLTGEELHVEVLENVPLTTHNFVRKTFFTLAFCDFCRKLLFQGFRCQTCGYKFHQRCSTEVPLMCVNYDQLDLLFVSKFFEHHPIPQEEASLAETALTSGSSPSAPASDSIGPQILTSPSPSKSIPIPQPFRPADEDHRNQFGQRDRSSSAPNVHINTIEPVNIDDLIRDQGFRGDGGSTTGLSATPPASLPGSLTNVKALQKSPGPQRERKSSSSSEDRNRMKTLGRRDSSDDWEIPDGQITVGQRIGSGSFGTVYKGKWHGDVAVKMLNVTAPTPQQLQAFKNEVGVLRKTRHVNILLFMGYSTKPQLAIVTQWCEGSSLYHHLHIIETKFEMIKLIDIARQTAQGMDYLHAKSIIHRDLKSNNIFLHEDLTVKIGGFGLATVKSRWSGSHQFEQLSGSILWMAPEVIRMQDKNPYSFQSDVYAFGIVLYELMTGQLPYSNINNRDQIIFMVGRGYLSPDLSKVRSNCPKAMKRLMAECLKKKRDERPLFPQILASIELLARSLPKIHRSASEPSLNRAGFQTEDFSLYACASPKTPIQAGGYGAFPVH
T1 sequence (P15056 whole entry G469A): as the sequence (P15056 whole entry D594G) above, with G469A, G594D counted along it
T3 sequence (P15056 whole entry V600E, the tested form may be a part): as the sequence (P15056 whole entry D594G) above, with G594D, V600E counted along it
T4 sequence (P15056 whole entry G466V): as the sequence (P15056 whole entry D594G) above, with G466V, G594D counted along it

On to `CCN(C)S(=O)(=O)Nc1cc(Cl)cc(-c2cn(-c3ccc(N4CCN(CC5CCN(c6ccc(N7CCC(=O)NC7=O)cn6)CC5)CC4)cn3)nc2-c2ccncc2)c1F` [Compound 313, 1-(6-{4-[(4-{6-[4-(5-chloro-3-{[ethyl(methyl)sulfamoyl]amino}-2-fluorophenyl)-3-(pyridin-4-yl)-1H-pyrazol-1-yl]pyridin-3-yl}piperazin-1-yl)methyl]piperidin-1-yl}pyridin-3-yl)-1,3-diazinane-2,4-dione], for which the DC50 on BRAF G469A (setting [1]) was 50 to 500 nM; at BRAF D594G (setting [3]) it was below 10 nM; on BRAF V600E (setting [5]) it was 10 to 50 nM; on BRAF G466V (setting [7]), 10 to 50 nM. Further, the Dmax at BRAF G469A (setting [2]) was 30 to 70%; at BRAF D594G (setting [4]), 30 to 70%; at BRAF V600E (setting [6]), above 70%; at BRAF G466V (setting [8]), above 70%.
In the case of `O=C1CCN(c2ccc(N3CCC(CN4CCN(c5ccc(-n6cc(-c7cc(Cl)cc(NS(=O)(=O)N8CC(F)C8)c7F)c(-c7ccncc7)n6)cc5)CC4)CC3)nc2)C(=O)N1` [Compound 368, N-[5-chloro-3-(1-{4-[4-({1-[5-(2,4-dioxo-1,3-diazinan-1-yl)pyridin-2-yl]piperidin-4-yl}methyl)piperazin-1-yl]phenyl}-3-(pyridin-4-yl)-1H-pyrazol-4-yl)-2-fluorophenyl]-3-fluoroazetidine-1-sulfonamide], the DC50 on BRAF G469A (setting [1]) was 10 to 50 nM; on BRAF D594G (setting [3]), below 10 nM; at BRAF V600E (setting [5]), below 10 nM; on BRAF G466V (setting [7]) it was below 10 nM. Moreover, the maximal degradation (Dmax) on BRAF G469A (setting [2]) was 30 to 70%; at BRAF D594G (setting [4]), 30 to 70%; on BRAF V600E (setting [6]), above 70%; on BRAF G466V (setting [8]) it was 30 to 70%.
With `O=C1CCN(c2ccc(N3CCC(CN4CCN(c5ccc(-n6cc(-c7cc(F)cc(NS(=O)(=O)N8CCCC8)c7F)c(-c7ccncc7)n6)cc5)CC4)CC3)cc2)C(=O)N1` [Compound 300, N-[3-(1-{4-[4-({1-[4-(2,4-dioxo-1,3-diazinan-1-yl)phenyl]piperidin-4-yl}methyl)piperazin-1-yl]phenyl}-3-(pyridin-4-yl)-1H-pyrazol-4-yl)-2,5-difluorophenyl]pyrrolidine-1-sulfonamide], the DC50 was 50 to 500 nM on BRAF G469A (setting [1]), below 10 nM at BRAF D594G (setting [3]), 10 to 50 nM on BRAF V600E (setting [5]) and below 10 nM on BRAF G466V (setting [7]). Moreover, the Dmax was 30 to 70% on BRAF G469A (setting [2]), 30 to 70% at BRAF D594G (setting [4]), above 70% on BRAF V600E (setting [6]) and above 70% at BRAF G466V (setting [8]).
Turning to `CCN(C)S(=O)(=O)Nc1cccc(-c2nc(C3CCN(C(=O)C4CCN(C(=O)C5CCN(c6ccc(C7CCC(=O)NC7=O)cn6)CC5)CC4)CC3)sc2-c2ccnc(NC(C)C)n2)c1F` (racemic) [Compound 183, Rac-(3S)-3-{6-[4-(4-{4-[4-(3-{[ethyl(methyl)sulfamoyl]amino}-2-fluorophenyl)-5-{2-[(propan-2-yl)amino]pyrimidin-4-yl}-1,3-thiazol-2-yl]piperidine-1-carbonyl}piperidine-1-carbonyl)piperidin-1-yl]pyridin-3-yl}piperidine-2,6-dione], the DC50 was above 500 nM at BRAF G469A (setting [9]), below 10 nM at BRAF D594G (setting [11]), below 10 nM at BRAF V600E (setting [13]) and below 10 nM on BRAF G466V (setting [15]). Besides, the Dmax was 30 to 70% on BRAF G469A (setting [10]), 30 to 70% at BRAF D594G (setting [12]), above 70% on BRAF V600E (setting [14]) and 30 to 70% at BRAF G466V (setting [16]).
As to `CCN(C)S(=O)(=O)Nc1cccc(-c2nc(C(C)(C)C)sc2-c2ccnc(Nc3ccc(N4CCN(C(=O)CN5CCc6cc(C7CCC(=O)NC7=O)ccc6C5)CC4)c(F)c3)n2)c1F` (racemic) [Compound 28, Rac-(3R)-3-[2-(2-{4-[4-({4-[2-tert-butyl-4-(3-{[ethyl(methyl)sulfamoyl]amino}-2-fluorophenyl)-1,3-thiazol-5-yl]pyrimidin-2-yl}amino)-2-fluorophenyl]piperazin-1-yl}-2-oxoethyl)-1,2,3,4-tetrahydroisoquinolin-6-yl]piperidine-2,6-dione], the DC50 is 10 to 50 nM on BRAF G469A (setting [9]), 10 to 50 nM on BRAF D594G (setting [11]), below 10 nM at BRAF V600E (setting [13]) and below 10 nM on BRAF G466V (setting [15]). For the same compound, the Dmax at BRAF G469A (setting [10]) was 30 to 70%; at BRAF D594G (setting [12]) it was 30 to 70%; at BRAF V600E (setting [14]), above 70%; on BRAF G466V (setting [16]), 30 to 70%.
Consider `O=C1CCC(c2ccc(N3CCC4(CC3)CC(CN3CCN(c5ccc(-n6cc(-c7cc(Cl)cc(NS(=O)(=O)N8CC[C@@H](F)C8)c7F)c(-c7ccncc7)n6)nc5)CC3)C4)cc2)C(=O)N1` (mixture of isomers) [Compound 298, (3R)—N-{5-chloro-3-[1-(5-{4-[(7-{4-[(3RS)-2,6-dioxopiperidin-3-yl]phenyl}-7-azaspiro[3.5]nonan-2-yl)methyl]piperazin-1-yl}pyridin-2-yl)-3-(pyridin-4-yl)-1H-pyrazol-4-yl]-2-fluorophenyl}-3-fluoropyrrolidine-1-sulfonamide], for which the DC50 at BRAF G469A (setting [1]) was above 500 nM; at BRAF D594G (setting [3]), above 500 nM; on BRAF V600E (setting [5]) it was 50 to 500 nM; on BRAF G466V (setting [7]), above 500 nM. Besides, the greatest degradation seen (Dmax) on BRAF G469A (setting [2]) is below 30%; at BRAF D594G (setting [4]) it was below 30%; at BRAF V600E (setting [6]), 30 to 70%; on BRAF G466V (setting [8]), below 30%.
`CCN(C)S(=O)(=O)Nc1cccc(-c2nc(C)sc2-c2ccnc(Nc3ccc(N4CCN(CC5CCN(c6ccc([C@H]7CCC(=O)NC7=O)cc6)CC5)CC4)cn3)n2)c1F` [Compound 41, (3R)-3-{4-[4-({4-[6-({4-[4-(3-{[ethyl(methyl)sulfamoyl]amino}-2-fluorophenyl)-2-methyl-1,3-thiazol-5-yl]pyrimidin-2-yl}amino)pyridin-3-yl]piperazin-1-yl}methyl)piperidin-1-yl]phenyl}piperidine-2,6-dione]: the DC50 at BRAF G469A (setting [9]) is 10 to 50 nM; at BRAF D594G (setting [11]), 10 to 50 nM; on BRAF V600E (setting [13]), below 10 nM; at BRAF G466V (setting [15]), 50 to 500 nM. Besides, the Dmax on BRAF G469A (setting [10]) was 30 to 70%; at BRAF D594G (setting [12]), 30 to 70%; on BRAF V600E (setting [14]), above 70%; on BRAF G466V (setting [16]), 30 to 70%.
Take `CCCS(=O)(=O)Nc1cccc(-c2nc(C(C)(C)C)sc2-c2ccnc(N[C@H]3CC[C@@H](N4CCN(C(=O)C5CCN(c6ccc(C7CCC(=O)NC7=O)cn6)CC5)CC4)CC3)n2)c1F` (mixture of isomers) [Compound 138, N-{3-[2-tert-butyl-5-(2-{[(1s,4s)-4-[4-(1-{5-[(3RS)-2,6-dioxopiperidin-3-yl]pyridin-2-yl}piperidine-4-carbonyl)piperazin-1-yl]cyclohexyl]amino}pyrimidin-4-yl)-1,3-thiazol-4-yl]-2-fluorophenyl}propane-1-sulfonamide]: the DC50 was below 10 nM at BRAF G469A (setting [9]), 10 to 50 nM on BRAF D594G (setting [11]), below 10 nM at BRAF V600E (setting [13]) and below 10 nM on BRAF G466V (setting [15]). For the same compound, the Dmax at BRAF G469A (setting [10]) was 30 to 70%; at BRAF D594G (setting [12]) it was 30 to 70%; at BRAF V600E (setting [14]) it was above 70%; on BRAF G466V (setting [16]), 30 to 70%.
On to `CCN(C)S(=O)(=O)Nc1cccc(-c2nc(C(C)(C)C)sc2-c2ccnc(Nc3ccc(N4CCN(CC5CCN(c6ccc([C@H]7CCC(=O)NC7=O)cn6)CC5)CC4)cn3)n2)c1F` [Compound 29, (3R)-3-{6-[4-({4-[6-({4-[2-tert-butyl-4-(3-{[ethyl(methyl)sulfamoyl]amino}-2-fluorophenyl)-1,3-thiazol-5-yl]pyrimidin-2-yl}amino)pyridin-3-yl]piperazin-1-yl}methyl)piperidin-1-yl]pyridin-3-yl}piperidine-2,6-dione], for which the DC50 was 10 to 50 nM on BRAF G469A (setting [9]), below 10 nM on BRAF D594G (setting [11]), 10 to 50 nM at BRAF V600E (setting [13]) and below 10 nM on BRAF G466V (setting [15]). Further, the Dmax on BRAF G469A (setting [10]) is 30 to 70%; on BRAF D594G (setting [12]) it was 30 to 70%; at BRAF V600E (setting [14]), above 70%; at BRAF G466V (setting [16]), above 70%.

The values are drawn from US20260317324A1, “BIFUNCTIONAL COMPOUNDS FOR DEGRADING BRAF VIA UBIQUITIN PROTEOSOME PATHWAY” (Nurix Therapeutics, Inc., priority 2023, published 2026).
